Laboratory results from patent US7022712B2, “Solubilization of weak bases” (Arizona Board of Regents on Behalf of the University of …, priority 2002, dated 2006).
Values after ≈ are worked out from the molar mass of the structure shown. Read-outs that look alike come from different tables or passages of the source.

Tests used:
[1] = listed for preferred weak bases, no method given; cited from earlier work
physchem [2] = assay type: physicochemical; details: for solubility at 10 days: thermodynamic from solid
Text: The buffer systems used for the pH-solubilization profile were 0.01 M sodium citrate/HCl with pH range 1.2–4.0, 0.01 M citrate-phosphate-borate/HCl with pH range 4.0–8.0, and 0.01M glycine/NaOH with pH range 8.0–12.0. In all the above mentioned buffers the ionic strength was maintained at 0.1M using sodium chloride. The effect of buffer species on the solubility of carbendazim at very low and high pH was not observed because the Ksp of each salt was not reached. Solubility at different pH was determined in the same manner as described below.
(§1) An excess amount of carbendazim was added to vials containing 2 ml of an aqueous solution of pH 2.00±0.15 and 7.00±0.15 at different concentrations (0, 1, 2.5, 5, and 10%) of cosolvents (EtOH, PG, PEG 400, and Glycerol), surfactants (Tween 20, Tween 80, sodium lauryl sulfate (SLS), and myristoyl camitine (MC)) and cyclodextrins (HPβCD and SBEβCD). In addition the cosolvents and cyclodextrins were studied at 20%. The sample vials were rotated at 20 rpm using an end-over-end mechanical rotator (Glas-Col Laboratory rotator, Terre Haute, Ind.) at ambient temperature for 10 days. Ten days was selected to ensure equilibrium because the strong crystal structure and high melting point (305° C.) (Budavari, S., 1996. The Merck Index, Twelfth ed. Merck & Co, New Jersey) of carbendazim contributes to a very slow dissolution rate. For solutions having pH greater than 9, the solubility was measured after 3 days rotation instead of 10 days because of the unstable nature of carbendazim in alkaline condition. The samples were filtered through a 0.45-μm filter and the pH at equilibrium was measured before performing HPLC analysis.
(§2) The HPLC assay used an Econosphere C8 column (150*4.6 mm, Alltech, Los Altos, Calif.) with a mobile phase composed of pure methanol. The flow rate was controlled at 1.0 ml/min (125 solvent Module, Beckman, Fullerton, Calif.) and the effluent was detected at 280 nm (168 detector, Beckman, Fullerton, Calif.). All experimental data are the average of duplicate values with an average error less than 3%.
The formation of a resonance-stabilized cation and anion is believed responsible for the high solubilities at low and high pH that are shown in FIG. 2. […] FIGS. 7–9 show the pH profile of three other drugs, obtained using analogous methods.

physchem [3] = assay type: physicochemical; details: thermodynamic from solid, Solubility of carbendazim
Experimental: as §1, with “Ten days was selected to ensure equilibrium because the strong crystal structure and high melting point (305° C.) (Budavari, S., 1996. The Merck Index, Twelfth ed. Merck & Co, New Jersey) of carbendazim contributes to a very slow dissolution rate.” left out
as §2, with “All experimental data are the average of duplicate values with an average error less than 3%.” left out

in vivo = details: mouse
Text: The bioavailability of carbendazim was studied in the mouse. An intravenous dose, a formulation of carbendazim in corn oil, and a formulation of carbendazim in phosphoric acid corresponding to the phosphoric acid concentration in Emetrol were each given to a mouse. The blood level on the graph is indicative of the amount of drug absorbed divided by the blood volume of the mouse.

Cc1cc(NC(=O)NC(=O)c2ccccc2N(C)C)ccc1Oc1ncc(N)cn1
pKa [1]: ~5

COC(=O)Nc1nc2ccccc2[nH]1 [carbendazim, methyl 2-benzimidazolecarbamate]
intrinsic solubility (physchem [2]; 10 days): 6.11 µg/mL | pKa (physchem [2]; acidic pKa): 10.6 | pKa (physchem [2]; basic pKa): 4.5 | solubility at 10 days (physchem [2]; pH 1, aqueous buffer): 16000 µg/mL (≈ 83.7 mM) | solubility at 10 days (physchem [2]; pH 2, aqueous buffer): 1600 µg/mL (≈ 8.37 mM) | solubility at 10 days (physchem [3]; pH 2, aqueous buffer): 1640 µg/mL (≈ 8.58 mM) | solubility at 10 days (physchem [3]; pH 7, aqueous buffer): 6 µg/mL (≈ 0.0314 mM) | Cmax (in vivo; iv, 6.4 ug): 15000 ng/mL | bioavailability (in vivo; iv, 6.4 ug): 100%

Corn oil
% Bioavailability (in vivo; po, 132 mg): 4.8–6.4% | Cmax (in vivo; po, 132 mg): 15000 to 20000 ng/mL
